In patent US20260013501A1, “HERBICIDAL DERIVATIVES” (SYNGENTA CROP PROTECTION AG, priority 2022, published 2026):

Columns and labels:
Assay type in all cases: in vivo
[1] = test system: Amaranthus retoflexus (AMARE); assay: Post-emergence Test (Table B2), AMARE; set-up: key: five-point scale: 5=81-100%, 4=61-80%, 3=41-60%, 2=21-40%, 1=0-20% damage; conditions: evaluated after 13 days
Experimental: (§1) Seeds of a variety of test species are sown in standard soil in pots (Ipomoea hederacea (IPOHE), Zea mays (ZEAMX), Echinochloa crus-galli (ECHCG), Amaranthus palmeri (AMAPA), (Amaranthus retoflexus (AMARE), and (Setaria faberi (SETFA)). After 8 days cultivation under controlled conditions in a glasshouse (at 24° C./16° C., day/night; 14 hours light; 65% humidity), the plants are sprayed with an aqueous spray solution derived from the formulation of the technical active ingredient in acetone/water (50:50) solution containing 0.5% Tween 20 (polyoxyethelyene sorbitan monolaurate, CAS RN 9005-64-5). Rate of application is shown in g/ha in the tables below. The test plants are then grown in a glasshouse under controlled conditions in a glasshouse (at 24° C./16° C., day/night; 14 hours light; 65% humidity) and watered twice daily. After 13 days the test is evaluated for the percentage damage caused to the plant. The biological activities are shown in the following table on a five-point scale (5=81-100%; 4=61-80%; 3=41-60%; 2=21-40%; 1=0-20%; -=not tested).

[2] = test system: Ipomoea hederacea (IPOHE); assay: Pre-emergence Test (Table B1), IPOHE; conditions: evaluated after 13 days
Zea mays (ZEAMX) [3] = assay: Pre-emergence Test (Table B1), ZEAMX; conditions: evaluated after 13 days
[4] = test system: Echinochloa crus-galli (ECHCG); assay: Pre-emergence Test (Table B1), ECHCG; conditions: evaluated after 13 days
Setaria faberi (SETFA) = assay: Post-emergence Test (Table B2), SETFA; set-up: key: five-point scale: 5=81-100%, 4=61-80%, 3=41-60%, 2=21-40%, 1=0-20% damage; conditions: rate 1000 g/Ha, evaluated after 13 days
Experimental: as §1

Zea mays (ZEAMX) [5] = assay: Post-emergence Test (Table B2), ZEAMX; set-up: key: 5-point damage scale: 5=81-100%, 4=61-80%, 3=41-60%, 2=21-40%, 1=0-20%; conditions: evaluated after 13 days
How it was run: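 Score: % damage at 13 d on a 5-point scale (5=81-100%; 4=61-80%; 3=41-60%; 2=21-40%; 1=0-20%). Seeds sown in pots, sprayed with test article in acetone/water 50:50 + 0.5% Tween 20; rate in g/ha. Glasshouse 24/16 °C, 14 h light, 65% RH, watered twice daily.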

[6] = test system: Echinochloa crus-galli (ECHCG); assay: Post-emergence Test (Table B2), ECHCG; set-up: key: 5-point damage scale: 5=81-100%, 4=61-80%, 3=41-60%, 2=21-40%, 1=0-20%; conditions: evaluated after 13 days
Experimental: as §1

[7] = test system: Amaranthus palmeri (AMAPA); assay: Post-emergence Test (Table B2), AMAPA; set-up: key: five-point scale: 5=81-100%, 4=61-80%, 3=41-60%, 2=21-40%, 1=0-20% damage; conditions: evaluated after 13 days
Experimental: as §1

[8] = test system: Amaranthus palmeri (AMAPA); assay: Pre-emergence Test (Table B1), AMAPA; conditions: evaluated after 13 days
[9] = test system: Amaranthus retoflexus (AMARE); assay: Pre-emergence Test (Table B1), AMARE; conditions: evaluated after 13 days

CCn1c(Cc2ccccc2)cc(=O)c(C(=O)O)c1-c1ccc(Cl)c(Cl)c1 [Compound 3, 6-benzyl-2-(3,4-dichlorophenyl)-1-ethyl-4-oxo-pyridine-3-carboxylic acid]
0: percentage damage caused to the plant, AMARE ([1]; rate 1000 g/Ha) | Pre-emergence Test, percentage damage caused to the plant (five-point scale), IPOHE ([2]; Rate 1000 g/Ha) | Pre-emergence Test, percentage damage caused to the plant (five-point scale), ZEAMX (Zea mays (ZEAMX) [3]; Rate 1000 g/Ha) | Pre-emergence Test, percentage damage caused to the plant (five-point scale), ECHCG ([4]; Rate 1000 g/Ha)

CCn1c(Cc2cc(Cl)cc(Cl)c2)cc(=O)c(C(=O)O)c1-c1ccc(Cl)c(Cl)c1 [Compound 10, 2-(3,4-dichlorophenyl)-6-[(3,5-dichlorophenyl)methyl]-1-ethyl-4-oxo-pyridine-3-carboxylic acid]
0: percentage damage caused to the plant, SETFA (Setaria faberi (SETFA)) | percentage damage caused to the plant, ZEAMX (Zea mays (ZEAMX) [5]; rate 1000 g/Ha) | percentage damage caused to the plant, ECHCG ([6]; rate 1000 g/Ha)

CCn1c(Cc2ccccc2C)cc(=O)c(C(=O)O)c1-c1ccc(Cl)c(Cl)c1 [Compound 15, 2-(3,4-dichlorophenyl)-1-ethyl-6-(o-tolylmethyl)-4-oxo-pyridine-3-carboxylic acid]
0: percentage damage caused to the plant, SETFA (Setaria faberi (SETFA)) | percentage damage caused to the plant, ECHCG ([6]; rate 1000 g/Ha)

CCn1c(Cc2cncc(Cl)c2)cc(=O)c(C(=O)O)c1-c1ccc(Cl)c(Cl)c1 [Compound 17, 6-[(5-chloro-3-pyridyl)methyl]-2-(3,4-dichlorophenyl]-1-ethyl-4-oxo-pyridine-3-carboxylic acid]
0: percentage damage caused to the plant, AMAPA ([7]; rate 250 g/Ha) | percentage damage caused to the plant, AMARE ([1]; rate 250 g/Ha) | percentage damage caused to the plant, ZEAMX (Zea mays (ZEAMX) [5]; rate 250 g/Ha) | Pre-emergence Test, percentage damage caused to the plant (five-point scale), IPOHE ([2]; Rate 250 g/Ha) | percentage damage caused to the plant, ECHCG ([6]; rate 250 g/Ha) | Pre-emergence Test, percentage damage caused to the plant (five-point scale), ZEAMX (Zea mays (ZEAMX) [3]; Rate 250 g/Ha) | Pre-emergence Test, percentage damage caused to the plant (five-point scale), ECHCG ([4]; Rate 250 g/Ha) | Pre-emergence Test, percentage damage caused to the plant (five-point scale), AMAPA ([8]; Rate 250 g/Ha) | Pre-emergence Test, percentage damage caused to the plant (five-point scale), AMARE ([9]; Rate 250 g/Ha)

CCn1c(Cc2ccnc(C(F)(F)F)c2)cc(=O)c(C(=O)O)c1-c1ccc(Cl)c(Cl)c1 [Compound 21, 2-(3,4-dichlorophenyl)-1-ethyl-4-oxo-6-[[2-(trifluoromethyl)-4-pyridyl]methyl]pyridine-3-carboxylic acid]
0: percentage damage caused to the plant, AMAPA ([7]; rate 250 g/Ha) | percentage damage caused to the plant, AMARE ([1]; rate 250 g/Ha)

CCn1c(Cc2ccc(F)cc2Cl)cc(=O)c(C(=O)O)c1-c1ccc(Cl)c(Cl)c1 [Compound 68, 6-[(2-chloro-4-fluoro-phenyl)methyl]-2-(3,4-dichlorophenyl)-1-ethyl-4-oxo-3-pyridine-3-carboxylic acid]
0: percentage damage caused to the plant, AMAPA ([7]; rate 1000 g/Ha) | percentage damage caused to the plant, AMARE ([1]; rate 1000 g/Ha) | Pre-emergence Test, percentage damage caused to the plant (five-point scale), IPOHE ([2]; Rate 1000 g/Ha) | percentage damage caused to the plant, ECHCG ([6]; rate 1000 g/Ha) | Pre-emergence Test, percentage damage caused to the plant (five-point scale), ZEAMX (Zea mays (ZEAMX) [3]; Rate 1000 g/Ha)

CCn1c(Cc2ccc(OC)cc2Cl)cc(=O)c(C(=O)O)c1-c1ccc(Cl)c(Cl)c1 [Compound 69, 6-[(2-chloro-4-methoxy-phenyl)methyl]-2-(3,4-dichlorophenyl)-1-ethyl-4-oxo-pyridine-3-carboxylic acid]
0: percentage damage caused to the plant, AMAPA ([7]; rate 1000 g/Ha) | percentage damage caused to the plant, AMARE ([1]; rate 1000 g/Ha) | Pre-emergence Test, percentage damage caused to the plant (five-point scale), IPOHE ([2]; Rate 1000 g/Ha) | percentage damage caused to the plant, ECHCG ([6]; rate 1000 g/Ha) | Pre-emergence Test, percentage damage caused to the plant (five-point scale), ZEAMX (Zea mays (ZEAMX) [3]; Rate 1000 g/Ha) | Pre-emergence Test, percentage damage caused to the plant (five-point scale), AMAPA ([8]; Rate 1000 g/Ha) | Pre-emergence Test, percentage damage caused to the plant (five-point scale), AMARE ([9]; Rate 1000 g/Ha)

CCn1c(Cc2ccc(F)c(Cl)c2)cc(=O)c(C(=O)O)c1-c1ccc(Cl)c(Cl)c1 [Compound 75, 6-[(3-chloro-4-fluoro-phenyl)methyl]-2-(3,4-dichlorophenyl)-1-ethyl-4-oxo-pyridine-3-carboxylic acid]
0: percentage damage caused to the plant, AMAPA ([7]; rate 1000 g/Ha) | percentage damage caused to the plant, AMARE ([1]; rate 1000 g/Ha) | percentage damage caused to the plant, ZEAMX (Zea mays (ZEAMX) [5]; rate 1000 g/Ha) | Pre-emergence Test, percentage damage caused to the plant (five-point scale), ZEAMX (Zea mays (ZEAMX) [3]; Rate 1000 g/Ha)

CCn1c(Cc2ccc(OC)c(Cl)c2)cc(=O)c(C(=O)O)c1-c1ccc(Cl)c(Cl)c1 [Compound 86, 6-[(3-chloro-4-methoxy-phenyl)methyl]-2-(3,4-dichlorophenyl)-1-ethyl-4-oxo-pyridine-3-carboxylic acid]
0: percentage damage caused to the plant, AMAPA ([7]; rate 250 g/Ha) | percentage damage caused to the plant, AMARE ([1]; rate 250 g/Ha) | Pre-emergence Test, percentage damage caused to the plant (five-point scale), IPOHE ([2]; Rate 250 g/Ha) | Pre-emergence Test, percentage damage caused to the plant (five-point scale), ZEAMX (Zea mays (ZEAMX) [3]; Rate 250 g/Ha) | Pre-emergence Test, percentage damage caused to the plant (five-point scale), AMAPA ([8]; Rate 250 g/Ha)

CCn1c(Cc2ccc(C)c(C#N)n2)cc(=O)c(C(=O)O)c1-c1ccc(Cl)c(Cl)c1 [Compound 113, 6-[(6-cyano-5-methyl-2-pyridyl)methyl]-2-(3,4-dichlorophenyl)-1-ethyl-4-oxo-pyridine-3-carboxylic acid]
0: percentage damage caused to the plant, AMAPA ([7]; rate 250 g/Ha) | percentage damage caused to the plant, AMARE ([1]; rate 250 g/Ha) | Pre-emergence Test, percentage damage caused to the plant (five-point scale), ZEAMX (Zea mays (ZEAMX) [3]; Rate 250 g/Ha) | Pre-emergence Test, percentage damage caused to the plant (five-point scale), AMAPA ([8]; Rate 250 g/Ha) | Pre-emergence Test, percentage damage caused to the plant (five-point scale), AMARE ([9]; Rate 250 g/Ha)

CCn1c(Cc2cc(C)n(C)n2)cc(=O)c(C(=O)O)c1-c1ccc(Cl)c(Cl)c1 [Compound 120, 2-(3,4-dichlorophenyl)-6-[(1,5-dimethylpyrazol-3-yl)methyl]-1-ethyl-4-oxo-pyridine-3-carboxylic acid]
0: percentage damage caused to the plant, AMAPA ([7]; rate 250 g/Ha) | percentage damage caused to the plant, AMARE ([1]; rate 250 g/Ha) | Pre-emergence Test, percentage damage caused to the plant (five-point scale), IPOHE ([2]; Rate 250 g/Ha) | Pre-emergence Test, percentage damage caused to the plant (five-point scale), ZEAMX (Zea mays (ZEAMX) [3]; Rate 250 g/Ha) | Pre-emergence Test, percentage damage caused to the plant (five-point scale), ECHCG ([4]; Rate 250 g/Ha) | Pre-emergence Test, percentage damage caused to the plant (five-point scale), AMAPA ([8]; Rate 250 g/Ha) | Pre-emergence Test, percentage damage caused to the plant (five-point scale), AMARE ([9]; Rate 250 g/Ha)

CCn1c(Cc2nc(OC)cc(OC)n2)cc(=O)c(C(=O)O)c1-c1ccc(Cl)c(Cl)c1 [Compound 126, 2-(3,4-dichlorophenyl)-6-[(4,6-dimethoxypyrimidin-2-yl)methyl]-1-ethyl-4-oxo-pyridine-3-carboxylic acid]
0: percentage damage caused to the plant, AMAPA ([7]; rate 250 g/Ha) | percentage damage caused to the plant, AMARE ([1]; rate 250 g/Ha) | Pre-emergence Test, percentage damage caused to the plant (five-point scale), ZEAMX (Zea mays (ZEAMX) [3]; Rate 250 g/Ha)

CCn1c(Cc2cnc(C3CC3)nc2)cc(=O)c(C(=O)O)c1-c1ccc(Cl)c(Cl)c1 [Compound 151, 6-[(2-cyclopropylpyrimidin-5-yl)methyl]-2-(3,4-dichlorophenyl)-1-ethyl-4-oxo-pyridine-3-carboxylic acid]
0: percentage damage caused to the plant, AMAPA ([7]; rate 250 g/Ha) | percentage damage caused to the plant, ZEAMX (Zea mays (ZEAMX) [5]; rate 250 g/Ha) | Pre-emergence Test, percentage damage caused to the plant (five-point scale), IPOHE ([2]; Rate 250 g/Ha) | Pre-emergence Test, percentage damage caused to the plant (five-point scale), ZEAMX (Zea mays (ZEAMX) [3]; Rate 250 g/Ha) | Pre-emergence Test, percentage damage caused to the plant (five-point scale), ECHCG ([4]; Rate 250 g/Ha)
